Drawing on US10059667B2, “Antidiabetic compounds” (MERCK SHARP & DOHME CORP., priority 2014, dated 2018), this text covers EC50 for 53 compounds.

Structures are written as SMILES.

T1 sequence (O14842 whole entry): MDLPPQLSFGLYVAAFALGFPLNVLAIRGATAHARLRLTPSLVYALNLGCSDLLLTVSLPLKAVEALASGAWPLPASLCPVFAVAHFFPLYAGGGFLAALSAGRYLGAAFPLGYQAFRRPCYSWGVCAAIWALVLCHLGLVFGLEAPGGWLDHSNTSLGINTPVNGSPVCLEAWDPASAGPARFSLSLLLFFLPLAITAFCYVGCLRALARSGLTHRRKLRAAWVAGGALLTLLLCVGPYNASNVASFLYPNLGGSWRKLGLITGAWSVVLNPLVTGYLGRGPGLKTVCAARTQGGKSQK

One test addresses T1, Human GPR40 (Homo sapiens (Human), UniProt O14842). The test is described as follows: FLIPR assay, agonist-induced calcium mobilization in GPR40/CHO NFAT BLA cells. It counts as cell-based.
Conditions: not given
On the procedure:
(§1) Human and mouse GPR40 stable cell-lines were generated in CHO cells stably expressing NFAT BLA (Beta-lactamase). A human GPR40 stable cell-line was generated in HEK cells stably expressing the aequorin expressing reporter. The expression plasmids were transfected using lipofectamine (Life Technologies) following manufacturer's instructions. Stable cell-lines were generated following drug selection.
FLIPR (Fluorimetric Imaging Plate Reader, Molecular Devices) assays were performed to measure agonist-induced calcium mobilization of the stable clones. For the FLIPR assay, one day before assay, GPR40/CHO NFAT BLA cells were seeded into black-wall-clear-bottom 384-well plates (Costar) at 1.4×10e4 cells/20 μL medium/well. The cells were incubated with 20 μl/well of the assay buffer (HBSS, 0.1% BSA, 20 mM HEPES, 2.5 mM probenecid, pH 7.4) containing 8 μM fluo-4, AM, 0.08% pluronic acid at room temperature for 100 minutes. Fluorescence output was measured using FLIPR. Compounds were dissolved in DMSO and diluted to desired concentrations with assay buffer. 13.3 μL/well of compound solution was added.
Broadly, the EC50 is the concentration needed to bring the measured effect to its halfway point. Consider `O=C(O)C[C@H](c1cccc(OC2CC3(CCN(Cc4cc(C(F)(F)F)ccc4C(F)(F)F)C3)C2)c1)C1CC1` (single isomer, unassigned) [Example 5A], for which the EC50 worked out at 455 nM.

For the compound `O=C(O)C[C@H](c1cccc(OC2CC3(CCN(Cc4cc(C(F)(F)F)ccc4C(F)(F)F)C3)C2)c1)C1CC1` (single isomer, unassigned) [Example 5B], the EC50 came to 113 nM.

As to `O=C(O)C[C@H](c1cccc(OC2CCN(Cc3cccc(C(F)(F)F)c3)C2)c1)C1CC1` (stereo partly shown) [Example 45], the EC50 was determined as 387 nM.

For `CC(c1cc(F)ccc1F)N1CC(COc2cccc([C@@H](CC(=O)O)C3CC3)c2)C1` (stereo partly shown) [Example 57], the EC50 was determined as 480 nM.

Another test addresses T1, Human GPR40. Put plainly: Inositol Phosphate Turnover (IP1) Assay 1, HEK cells stably expressing human GPR40, 3H-inositol SPA. It counts as cell-based. Conditions: HEK cells stably expressing human GPR40, 96-well. How it is done:
as §1
The assay was performed in 96-well format. HEK cells stably expressing human GPR40 were plated to be 60-80% confluent within 72 h. After 72 h, the plates were aspirated and the cells washed with inositol-free DMEM (ICN). The wash media was replaced with 150 μL of 3H-inositol labeling media (inositol-free media containing 0.4% human albumin or 0.4% mouse albumin, 1× pen/strep antibiotics, glutamine, 25 mM HEPES to which was added 3H-myo-inositol NEN #NET114A 1 mCi/mL, 25 Ci/mmol diluted 1:150 in loading media with a final specific radioactivity of 1 μCi/150 μL). Alternatively, the human and mouse albumin can be added after the overnight labeling step before the addition of LiCl.
The assay was typically run the next day after 18 h labeling. On the day of the assay, 5 μL of 300 mM LiCl was added to all wells and incubated at 37 degrees for 20 min. 0.75 μL of each compound was added and incubated with the cells for 60 min at 37 degrees. The media was then aspirated off and the assay terminated with the addition of 60 μL 10 mM formic acid. The cells were lysed for 60 min at room temperature. 15-30 μL of lysate was mixed with 70 μL/1 mg YSi SPA beads (Amersham) in clear bottom Isoplates. The plates were shaken for 2 h at room temperature. Beads were allowed to settle and the plates were counted in the Wallac Microbeta.
For `O=C(O)C[C@H](c1cccc(OC2CC3(CCN(Cc4cc(C(F)(F)F)ccc4C(F)(F)F)C3)C2)c1)C1CC1` (single isomer, unassigned) [Example 5A], the EC50 was found to be 4150 nM.

`O=C(O)C[C@H](c1cccc(OC2CC3(CCN(Cc4cc(C(F)(F)F)ccc4C(F)(F)F)C3)C2)c1)C1CC1` (single isomer, unassigned) [Example 5B] displayed an EC50 of 2140 nM.

As to `COc1cccc(C2CC(COc3cccc([C@H](C4CC4)[C@H](C)C(=O)O)c3)C2)c1` (stereo partly shown) [Example 85], the EC50 was determined as 35 nM.

In turn, `COc1cc(C2CC(COc3cccc([C@H](C4CC4)[C@H](C)C(=O)O)c3)C2)ccn1` (stereo partly shown) [Example 86] came in with an EC50 of 102 nM.

Turning to `C[C@H](C(=O)O)[C@H](c1cccc(OCC2CC(Oc3ccccc3)C2)c1)C1CC1` (stereo partly drawn) [Example 92, (2S,3R)-3-cyclopropyl-2-methyl-3-(3-((3-phenoxycyclobutyl)methoxy)phenyl)-propanoic acid], a half-maximal effect (EC50) was put at 208 nM.

Take `COc1cc(OC2CC(COc3cccc([C@H](C4CC4)[C@H](C)C(=O)O)c3)C2)ccn1` (stereo partly shown) [Example 93]: the EC50 turned out to be 181 nM.

`C[C@H](C(=O)O)[C@H](c1cccc(OCC2CC(Oc3ccccc3F)C2)c1)C1CC1` (stereo partly shown) [Example 94]: the EC50 worked out at 110 nM.

In the case of `C[C@H](C(=O)O)[C@H](c1cccc(OCC2CC(Oc3ccc(OC(F)F)nc3)C2)c1)C1CC1` (stereo partly shown) [Example 95], the EC50 amounted to 1390 nM.

Turning to `COc1ncc(OC2CC(COc3cccc([C@H](C4CC4)[C@H](C)C(=O)O)c3)C2)cn1` (stereo partly shown) [Example 96], it took 8230 nM to reach a half-maximal effect (EC50).

In the case of `Cc1cc(OC2CC(COc3cccc([C@H](C4CC4)[C@H](C)C(=O)O)c3)C2)n(C)n1` (stereo partly shown) [Example 97], the response was half-maximal at 7240 nM (EC50).

Compound `Cc1c(OC2CC(COc3cccc([C@H](C4CC4)[C@H](C)C(=O)O)c3)C2)nn(C)c1C(F)(F)F` (stereo partly shown) [Example 100] had an EC50 of 560 nM.

As for `C[C@H](C(=O)O)[C@H](c1cccc(OCC2CC(Oc3ccnn3C)C2)c1)C1CC1` (stereo partly shown) [Example 101], a half-maximal response (EC50) required 7220 nM.

As to `C[C@H](C(=O)O)[C@H](c1cccc(OCC2CC(Oc3ccccn3)C2)c1)C1CC1` (stereo partly shown) [Example 102], the response was half-maximal at 643 nM (EC50).

Turning to `C[C@H](C(=O)O)[C@H](c1cccc(OCC2CC(Oc3ccccn3)C2)c1)C1CC1` (stereo partly shown) [Example 103], the EC50 was 187 nM.

On to `COc1cc(OC2CC(COc3cccc([C@H](C4CC4)[C@H](C)C(=O)O)c3)C2)c(F)cn1` (stereo partly shown) [Example 106], for which a half-maximal effect (EC50) was put at 54 nM.

In turn, `C[C@H](C(=O)O)[C@H](c1cccc(OCC2CC(Oc3cccnc3)C2)c1)C1CC1` (stereo partly shown) [Example 109] yielded an EC50 of 7190 nM.

Regarding `C[C@H](C(=O)O)[C@H](c1cccc(OCC2CC(Oc3cccnc3)C2)c1)C1CC1` (stereo partly shown) [Example 110], it took 1960 nM to reach a half-maximal effect (EC50).

For the compound `C[C@H](C(=O)O)[C@H](c1cccc(OCC2CC(Oc3ccnc4c3OCCO4)C2)c1)C1CC1` (stereo partly shown) [Example 111], a half-maximal response (EC50) required 3100 nM.

In the case of `CCOc1ccccc1OC1CC(COc2cccc([C@H](C3CC3)[C@H](C)C(=O)O)c2)C1` (stereo partly shown) [Example 112], the EC50 stood at 109 nM.

The compound `CCOc1ccc(OC2CC(COc3cccc([C@H](C4CC4)[C@H](C)C(=O)O)c3)C2)cc1` (stereo partly shown) [Example 113] had an EC50 of 1210 nM.

The compound `C[C@H](C(=O)O)[C@H](c1cccc(OCC2CC(Oc3c(F)cccc3F)C2)c1)C1CC1` (stereo partly shown) [Example 114] registered an EC50 of 107 nM.

On to `C[C@H](C(=O)O)[C@H](c1cccc(OCC2CC(Oc3cc(F)ccc3F)C2)c1)C1CC1` (stereo partly shown) [Example 115], for which the EC50 stood at 110 nM.

For the compound `COc1ccc(OC2CC(COc3cccc([C@H](C4CC4)[C@H](C)C(=O)O)c3)C2)cc1` (stereo partly shown) [Example 124], it took 577 nM to reach a half-maximal effect (EC50).

In turn, `COc1ccc(OC2CC(COc3cccc([C@H](C4CC4)[C@H](C)C(=O)O)c3)C2)cc1` (stereo partly shown) [Example 125] had an EC50 of 565 nM.

`COc1ccccc1OC1CC(COc2cccc([C@H](C3CC3)[C@H](C)C(=O)O)c2)C1` (stereo partly shown) [Example 128] gave an EC50 of 72 nM.

In turn, `CCOc1cccc(OC2CC(COc3cccc([C@H](C4CC4)[C@H](C)C(=O)O)c3)C2)c1` (stereo partly shown) [Example 131] came in with an EC50 of 119 nM.

On to `C[C@H](C(=O)O)[C@H](c1cccc(OCC2CC(Oc3ccccc3-c3ccccc3)C2)c1)C1CC1` (stereo partly shown) [Example 132], for which the EC50 came out at 150 nM.

The compound `C[C@H](C(=O)O)[C@H](c1cccc(OCC2CC(Oc3cccc4c3OC(C)(C)C4)C2)c1)C1CC1` (stereo partly shown) [Example 135] registered an EC50 of 307 nM.

Consider `C[C@H](C(=O)O)[C@H](c1cccc(OCC2CC(Oc3cccc(C(F)(F)F)c3)C2)c1)C1CC1` (stereo partly shown) [Example 136], for which the EC50 was determined as 262 nM.

For the compound `C[C@H](C(=O)O)[C@H](c1cccc(OC[C@H]2C[C@@H]2c2cccc(OC(F)(F)F)c2)c1)C1CC1` [Example 137], a half-maximal response (EC50) required 176 nM.

As to `C[C@H](C(=O)O)[C@H](c1cccc(OC[C@H]2C[C@@H]2c2cccc(OC3CC3)c2)c1)C1CC1` [Example 138], a half-maximal effect (EC50) was put at 74 nM.

In the case of `COc1ccc(OC)c([C@H]2C[C@@H]2COc2cccc([C@H](C3CC3)[C@H](C)C(=O)O)c2)c1` [Example 139], the concentration giving a half-maximal response (EC50) stood at 188 nM.

Turning to `COc1cccc([C@H]2C[C@@H]2COc2cccc([C@H](C3CC3)[C@H](C)C(=O)O)c2)c1F` [Example 140], the response was half-maximal at 225 nM (EC50).

The compound `COc1cc(F)cc([C@H]2C[C@@H]2COc2cccc([C@H](C3CC3)[C@H](C)C(=O)O)c2)c1` [Example 141] came in with an EC50 of 109 nM.

Regarding `COc1ccc(F)c([C@H]2C[C@@H]2COc2cccc([C@H](C3CC3)[C@H](C)C(=O)O)c2)c1F` [Example 142], the EC50 worked out at 78 nM.

On to `C[C@H](C(=O)O)[C@H](c1cccc(OC[C@H]2C[C@@H]2c2cc(C(F)(F)F)ccc2Cl)c1)C1CC1` [Example 143], for which it took 175 nM to reach a half-maximal effect (EC50).

`C[C@H](C(=O)O)[C@H](c1cccc(OC[C@H]2C[C@@H]2c2ccc(F)c(C(F)(F)F)c2)c1)C1CC1` [Example 144] showed an EC50 of 385 nM.

For `C[C@H](C(=O)O)[C@H](c1cccc(OC[C@H]2C[C@@H]2c2cc(OC(F)(F)F)ccc2F)c1)C1CC1` [Example 145], it took 223 nM to reach a half-maximal effect (EC50).

Turning to `C[C@H](C(=O)O)[C@H](c1cccc(OC[C@H]2C[C@@H]2c2cc(OC(F)(F)F)ccc2Cl)c1)C1CC1` [Example 146], a half-maximal effect (EC50) was put at 111 nM.

With `C[C@H](C(=O)O)[C@H](c1cccc(OC[C@H]2C[C@@H]2c2cccnc2)c1)C1CC1` [Example 147], the EC50 stood at 4440 nM.

Compound `COc1ncc([C@H]2C[C@@H]2COc2cccc([C@H](C3CC3)[C@H](C)C(=O)O)c2)cc1F` [Example 149] registered an EC50 of 802 nM.

On to `COc1cncc([C@H]2C[C@@H]2COc2cccc([C@H](C3CC3)[C@H](C)C(=O)O)c2)c1` [Example 150], for which the midpoint of the response, the EC50, lay at 4470 nM.

`C[C@H](C(=O)O)[C@H](c1cccc(OC[C@H]2C[C@@H]2c2cc(F)ccc2F)c1)C1CC1` [Example 151] displayed an EC50 of 90 nM.

Take `C[C@H](C(=O)O)[C@H](c1cccc(OC[C@H]2C[C@@H]2c2cc(Cl)ccc2F)c1)C1CC1` [Example 152]: the response was half-maximal at 89 nM (EC50).

For the compound `COc1cc(F)c([C@H]2C[C@@H]2COc2cccc([C@H](C3CC3)[C@H](C)C(=O)O)c2)cc1F` [Example 153], the EC50 was 325 nM.

For `COc1ccc([C@H]2C[C@@H]2COc2cccc([C@H](C3CC3)[C@H](C)C(=O)O)c2)c(F)c1` [Example 154], it took 544 nM to reach a half-maximal effect (EC50).

For `C[C@H](C(=O)O)[C@H](c1cccc(OC[C@H]2C[C@@H]2c2cc(C(F)(F)F)ccc2C(F)(F)F)c1)C1CC1` [Example 155], the EC50 turned out to be 316 nM.

Compound `C[C@H](C(=O)O)[C@H](c1cccc(OC[C@H]2C[C@@H]2c2ccc(Cl)c(C(F)(F)F)c2)c1)C1CC1` [Example 156] showed an EC50 of 355 nM.

For the compound `C[C@H](C(=O)O)[C@H](c1cccc(OC[C@H]2C[C@@H]2c2cc(C(F)(F)F)ccc2F)c1)C1CC1` [Example 157], the EC50 turned out to be 130 nM.

`COc1ccc(Cl)c([C@H]2C[C@@H]2COc2cccc([C@H](C3CC3)[C@H](C)C(=O)O)c2)c1` [Example 158] registered an EC50 of 26 nM.

In the case of `COc1ccc([C@H]2C[C@@H]2COc2cccc([C@H](C3CC3)[C@H](C)C(=O)O)c2)cc1` [Example 159], the response was half-maximal at 472 nM (EC50).
